System: C. elegance
Test: Measurement of dauer formation effect activity
Type: in vivo, Caenorhabditis elegance
Experimental: Next, dauer formation effect of the compound of 6R-(3,6-dideoxy-L-arabino-hexopyranosyloxy)heptanoic acid (I), which is synthesized according to the present process of the invention, is measured using C. elegance.
That is, the dauer formation effect of the synthetic pheromone is measured using C. elegance tinder different feed, temperature and crowd density conditions from each other.
Although it should be passed from an L2 first half step or L3 second half step to an adult step in a condition where the feed and temperature (15-25° C.) are proper and the crowd density is low, when the synthetic pheromone is mixed, the step goes to dauer larva stage.
For comparison, seven C. elegances in the dauer larva and one C. elegance in the adult step are comparatively observed. […] In Picture 1, it can be noted that the C. elegance is not grown without moving.
To identify the dauer formation effect of the inventive pheromone, an activity is measured after the pheromone compound is supplied to S. basal agar culture medium without peptone (Vowels and Thomas, Genetics 130: 105-123, 1992).
The dauer formation effect activity of the inventive compound with respect to C. elegance is shown as Table 3.

**Q.** For `C[C@H](CCCCC(=O)O)O[C@@H]1O[C@@H](C)[C@H](O)C[C@H]1O` [synthetic pheromone, 6R-(3,6-dideoxy-L-arabino-hexopyranosyloxy)heptanoic acid], which dauer formation effect (320 μg/plate of the synthetic pheromone, C. elegance) is on record?
**A.** 100%

**Q.** What about the “dauer formation effect (observation of larvae)” value (synthetic pheromone mixed in, proper feed and temperature (15-25° C.), low crowd density) of the same compound?
**A.** greatly affects the dauer formation effect

— patent US7576225B2, “6R-(3,6-dideoxy-L-arabino-hexopyranosyloxy) heptanoic acid, preparation process for the same and dauer effect thereof” (KDR Biotech. Co. Ltd., priority 2004, dated 2009)
